Data reported in US20240158370A1, “CK1 alpha AND DUAL CK1 alpha / GSPT1 DEGRADING COMPOUNDS” (Innovo Therapeutics, Inc., priority 2022, published 2024).

Experiments:
[1] = biological target: T1, CK1α (Homo sapiens, UniProt P48729+Q96SW2); assay: HiBiT degradation assay, CK1α, Procedure A; type: cell-based
T1 construct: CSNK1A1-HiBit KI HEK293(LgBit) Cells; host or cells: HEK293(LgBit) knock-in cells
How it was run: (§1)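 DC50 and Ymin (% remaining) were derived by four-parameter fitting of luminescence data. The data come from a six-hour, 37° C compound exposure of cells in DMEM/10% FBS over a ten-point range, 10 μM to 0.005 μM, followed by Nano-Glo HiBiT lytic detection.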

[2] = biological target: GSPT1 (Homo sapiens, UniProt P15170+Q96SW2); assay: HiBiT degradation assay, GSPT1, Procedure A; type: cell-based; set-up: HiBit-GSPT1 KI HEK293(LgBit) Cells; host or cells: HEK293(LgBit) knock-in cells
Chain of GSPT1 (P15170 whole entry): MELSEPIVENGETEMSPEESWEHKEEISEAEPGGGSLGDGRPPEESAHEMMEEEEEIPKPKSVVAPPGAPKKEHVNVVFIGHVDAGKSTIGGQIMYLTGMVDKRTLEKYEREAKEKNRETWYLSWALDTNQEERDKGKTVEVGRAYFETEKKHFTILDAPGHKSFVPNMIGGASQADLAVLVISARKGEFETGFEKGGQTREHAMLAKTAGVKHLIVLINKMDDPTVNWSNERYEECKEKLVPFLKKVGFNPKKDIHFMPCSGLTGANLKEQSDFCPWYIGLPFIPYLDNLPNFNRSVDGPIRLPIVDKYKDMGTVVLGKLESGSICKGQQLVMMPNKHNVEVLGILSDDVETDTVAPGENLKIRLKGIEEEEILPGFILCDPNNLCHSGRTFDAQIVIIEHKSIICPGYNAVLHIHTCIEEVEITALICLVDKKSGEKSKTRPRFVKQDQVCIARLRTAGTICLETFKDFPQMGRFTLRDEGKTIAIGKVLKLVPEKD
Chain of GSPT1 (Q96SW2 whole entry): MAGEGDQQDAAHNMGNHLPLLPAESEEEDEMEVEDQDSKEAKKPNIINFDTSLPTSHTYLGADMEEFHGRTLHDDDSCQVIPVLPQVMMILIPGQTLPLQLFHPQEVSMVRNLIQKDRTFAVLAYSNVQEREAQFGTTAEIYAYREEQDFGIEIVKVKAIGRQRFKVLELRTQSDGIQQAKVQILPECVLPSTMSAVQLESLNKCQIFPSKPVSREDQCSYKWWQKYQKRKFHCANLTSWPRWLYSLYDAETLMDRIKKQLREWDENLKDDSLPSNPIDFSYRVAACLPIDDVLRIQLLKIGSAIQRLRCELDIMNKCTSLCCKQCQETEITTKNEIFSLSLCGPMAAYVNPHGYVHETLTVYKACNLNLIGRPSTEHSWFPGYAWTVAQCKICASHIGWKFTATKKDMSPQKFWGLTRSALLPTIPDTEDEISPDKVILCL
Chain of GSPT1 (Q16531 whole entry partner): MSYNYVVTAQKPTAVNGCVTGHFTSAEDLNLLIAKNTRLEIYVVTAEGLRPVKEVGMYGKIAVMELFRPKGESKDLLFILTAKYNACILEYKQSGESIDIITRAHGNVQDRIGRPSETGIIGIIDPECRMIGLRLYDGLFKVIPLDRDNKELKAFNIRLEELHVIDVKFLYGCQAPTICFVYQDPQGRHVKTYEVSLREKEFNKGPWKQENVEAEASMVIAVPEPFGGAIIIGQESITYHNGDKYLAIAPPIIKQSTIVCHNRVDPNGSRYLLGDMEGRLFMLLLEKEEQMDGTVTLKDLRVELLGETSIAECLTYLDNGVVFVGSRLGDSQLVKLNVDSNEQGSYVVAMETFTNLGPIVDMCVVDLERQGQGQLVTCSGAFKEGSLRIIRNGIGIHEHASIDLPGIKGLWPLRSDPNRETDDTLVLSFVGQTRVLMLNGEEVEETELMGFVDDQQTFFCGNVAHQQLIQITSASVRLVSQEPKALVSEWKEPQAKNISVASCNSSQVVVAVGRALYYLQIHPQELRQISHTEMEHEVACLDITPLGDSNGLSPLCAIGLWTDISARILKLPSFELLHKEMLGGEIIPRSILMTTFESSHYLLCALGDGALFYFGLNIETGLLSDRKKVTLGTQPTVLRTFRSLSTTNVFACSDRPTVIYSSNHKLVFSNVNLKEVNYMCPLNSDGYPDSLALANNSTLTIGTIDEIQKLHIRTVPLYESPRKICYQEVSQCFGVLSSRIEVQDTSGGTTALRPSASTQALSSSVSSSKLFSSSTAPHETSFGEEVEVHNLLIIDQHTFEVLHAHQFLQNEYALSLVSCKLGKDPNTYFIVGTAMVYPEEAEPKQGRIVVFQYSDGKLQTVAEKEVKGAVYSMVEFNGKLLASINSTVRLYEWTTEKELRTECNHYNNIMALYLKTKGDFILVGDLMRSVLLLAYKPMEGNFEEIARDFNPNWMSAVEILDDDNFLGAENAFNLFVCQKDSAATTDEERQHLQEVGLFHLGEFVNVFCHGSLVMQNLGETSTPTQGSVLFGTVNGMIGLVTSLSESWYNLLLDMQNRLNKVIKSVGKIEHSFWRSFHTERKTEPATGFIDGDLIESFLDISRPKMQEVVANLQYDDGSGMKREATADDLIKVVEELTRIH
How it was run: as §1

T1 sequence (P48729 whole entry): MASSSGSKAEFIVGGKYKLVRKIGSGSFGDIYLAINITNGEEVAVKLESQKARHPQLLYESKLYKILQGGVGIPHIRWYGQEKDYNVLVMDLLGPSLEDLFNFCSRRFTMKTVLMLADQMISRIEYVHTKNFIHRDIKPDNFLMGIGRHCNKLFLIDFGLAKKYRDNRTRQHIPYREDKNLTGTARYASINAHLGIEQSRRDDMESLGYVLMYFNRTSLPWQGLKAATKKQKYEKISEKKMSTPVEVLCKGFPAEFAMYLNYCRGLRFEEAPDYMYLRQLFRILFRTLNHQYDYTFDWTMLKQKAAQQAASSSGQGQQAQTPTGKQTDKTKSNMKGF
T1 sequence (Q96SW2 whole entry): as the sequence (Q96SW2 whole entry) above
T1 sequence (Q16531 whole entry partner): as the sequence (Q16531 whole entry partner) above

| CK1α Ymin ([1]; six hours incubation) | DC50 ([1]; six hours incubation) [nM] | DC50 ([2]; six hours incubation) [nM] | GSPT1 Ymin ([2]; six hours incubation) | CK1α Ymin ([1]; six hours) | DC50 ([1]; six hours) [nM] | DC50 ([2]; six hours) [nM] | GSPT1 Ymin ([2]; six hours) | Structure (SMILES) |
| --- | --- | --- | --- | --- | --- | --- | --- | --- |
|  |  |  |  | D (D = >10- 25% remaining) | < 25 | < 25 | E (E = >25-75% remaining) | Cn1cnc(-c2ccc3c(c2)CN(C2CCC(=O)NC2=O)C3=O)c1-c1c[nH]c2ccccc12 (centres unmarked) [Example 509] |
|  |  |  |  | C (C = 0-10% remaining) | < 25 | ≥ 25 | F (F = >75-100% remaining) | Cn1cc(-c2ccc3c(c2)CN(C2CCC(=O)NC2=O)C3=O)nc1-c1ccc(F)cc1 (centres unmarked) [Example 556] |
|  |  |  |  | C (C = 0-10% remaining) | < 25 | < 25 | E (E = >25-75% remaining) | Cn1cnc(-c2ccc3c(c2)CN(C2CCC(=O)NC2=O)C3=O)c1-c1cccs1 (centres unmarked) [Example 506] |
|  |  |  |  | D (D = >10- 25% remaining) | ≥ 25 | ≥ 25 | F (F = >75-100% remaining) | Cn1cnc(-c2ccc3c(c2)CN(C2CCC(=O)NC2=O)C3=O)c1-c1cnn(CC(F)F)c1 (centres unmarked) [Example 497] |
|  |  |  |  | E (E = >25-75% remaining) | < 25 | ≥ 25 | F (F = >75-100% remaining) | Cn1nc(-c2ccc3c(c2)CN(C2CCC(=O)NC2=O)C3=O)nc1C1CCOCC1 (centres unmarked) [Example 599, 3-(5-(1-methyl-5-(tetrahydro-2H-pyran-4-yl)-1H-1,2,4-triazol-3-yl)-1-oxoisoindolin-2-yl)piperidine-2,6-dione] |
|  |  |  |  | C (C = 0-10% remaining) | < 25 | < 25 | F (F = >75-100% remaining) | Cc1cc(Cl)ccc1-c1nc(-c2ccc3c(c2)CN(C2CCC(=O)NC2=O)C3=O)cn1C (centres unmarked) [Example 562] |
|  |  |  |  | D (D = >10- 25% remaining) | ≥ 25 | ≥ 25 | E (E = >25-75% remaining) | Cn1cnc(-c2ccc3c(c2)CN(C2CCC(=O)NC2=O)C3=O)c1-c1ccc(N)nc1 (centres unmarked) [Example 522] |
|  |  |  |  | C (C = 0-10% remaining) | < 25 | < 25 | F (F = >75-100% remaining) | COc1cc(-c2nc(-c3ccc4c(c3)CN(C3CCC(=O)NC3=O)C4=O)cn2C)ccc1F (centres unmarked) [Example 583] |
|  |  |  |  | D (D = >10- 25% remaining) | ≥ 25 | ≥ 25 | F (F = >75-100% remaining) | Cn1cnc(-c2ccc3c(c2)CN(C2CCC(=O)NC2=O)C3=O)c1-c1cc[nH]n1 (centres unmarked) [Example 504] |
|  |  |  |  | E (E = >25-75% remaining) | ≥ 25 | ≥ 25 | F (F = >75-100% remaining) | Cn1ncc(-c2ccc3c(c2)CN(C2CCC(=O)NC2=O)C3=O)c1-c1ccc(N2CCCCC2)nc1 (centres unmarked) [Example 465] |
|  |  |  |  | C (C = 0-10% remaining) | < 25 | ≥ 25 | F (F = >75-100% remaining) | Cn1cc(-c2ccc3c(c2)CN(C2CCC(=O)NC2=O)C3=O)nc1-c1cccc(OC2CC2)c1 (centres unmarked) [Example 580] |

More lines, now with the values behind:

| Structure (SMILES) | CK1α Ymin ([1]; six hours incubation) | DC50 ([1]; six hours incubation) [nM] | DC50 ([2]; six hours incubation) [nM] | GSPT1 Ymin ([2]; six hours incubation) | CK1α Ymin ([1]; six hours) | DC50 ([1]; six hours) [nM] | DC50 ([2]; six hours) [nM] | GSPT1 Ymin ([2]; six hours) |
| --- | --- | --- | --- | --- | --- | --- | --- | --- |
| Cn1ncc(-c2ccc3c(c2)CN(C2CCC(=O)NC2=O)C3=O)c1-c1ccc2c(c1)OCC2 (centres unmarked) [Example 155] | E (E = >25-75% remaining) | < 25 | ≥ 25 | F (F = >75-100% remaining) |  |  |  |  |
| Cn1ncc(-c2ccc3c(c2)CN(C2CCC(=O)NC2=O)C3=O)c1-c1ccc(Cl)cc1 (centres unmarked) [Example 216] | E (E = >25-75% remaining) | < 25 | ≥ 25 | F (F = >75-100% remaining) |  |  |  |  |
| COc1cc(-c2c(-c3ccc4c(c3)CN(C3CCC(=O)NC3=O)C4=O)cnn2C)ccc1C (centres unmarked) [Example 78] | E (E = >25-75% remaining) | < 25 | ≥ 25 | F (F = >75-100% remaining) |  |  |  |  |
| Cn1cnc(-c2ccc3c(c2)CN(C2CCC(=O)NC2=O)C3=O)c1-c1cc(C#N)ccc1F (centres unmarked) [Example 186] | E (E = >25-75% remaining) | ≥ 25 | ≥ 25 | F (F = >75-100% remaining) |  |  |  |  |
| Cn1cnc(-c2ccc3c(c2)CN(C2CCC(=O)NC2=O)C3=O)c1-c1ccsc1Cl (centres unmarked) [Example 348] | E (E = >25-75% remaining) | < 25 | ≥ 25 | F (F = >75-100% remaining) |  |  |  |  |
| Cc1[nH]nc(-c2ccc3c(c2)CN(C2CCC(=O)NC2=O)C3=O)c1-c1ccccc1 (centres unmarked) [Example 11] | C (C = 0-10% remaining) | < 25 | < 25 | D (D = >10- 25% remaining) |  |  |  |  |
| COc1ccc(-c2c(-c3ccc4c(c3)CN(C3CCC(=O)NC3=O)C4=O)cnn2C)cc1O (centres unmarked) [Example 222] | C (C = 0-10% remaining) | < 25 | ≥ 25 | F (F = >75-100% remaining) |  |  |  |  |
| Cn1cnc(-c2ccc3c(c2)CN(C2CCC(=O)NC2=O)C3=O)c1-c1ccc(CO)cc1 (centres unmarked) [Example 236] | C (C = 0-10% remaining) | < 25 | ≥ 25 | E (E = >25-75% remaining) |  |  |  |  |
| COc1ccc2cc(-c3c(-c4ccc5c(c4)CN(C4CCC(=O)NC4=O)C5=O)ncn3C)ccc2c1 (centres unmarked) [Example 446] |  |  |  |  | D (D = >10- 25% remaining) | < 25 | < 25 | F (F = >75-100% remaining) |
| O=C1CCC(N2Cc3cc(-c4c[nH]c(-c5ccccc5)n4)ccc3C2=O)C(=O)N1 (centres unmarked) [Example 54, 3-(1-Oxo-5-(2-phenyl-1H-imidazol-4-yl)isoindolin-2-yl)piperidine-2,6-dione] | C (C = 0-10% remaining) | < 25 | ≥ 25 | F (F = >75-100% remaining) |  |  |  |  |
| Cn1c(C2OCCCO2)nc(-c2ccc3c(c2)CN(C2CCC(=O)NC2=O)C3=O)c1-c1ccccc1 (centres unmarked) [Example 419, 3-(5-(2-(1,3-dioxan-2-yl)-1-methyl-5-phenyl-1H-imidazol-4-yl)-1-oxoisoindolin-2-yl)piperidine-2,6-dione] |  |  |  |  | C (C = 0-10% remaining) | < 25 | ≥ 25 | F (F = >75-100% remaining) |
| COc1cc(-c2c(-c3ccc4c(c3)CN(C3CCC(=O)NC3=O)C4=O)ncn2C)ccc1C (centres unmarked) [Example 251] | D (D = >10- 25% remaining) | < 25 | ≥ 25 | F (F = >75-100% remaining) |  |  |  |  |
| Cn1ncc(-c2ccc3c(c2)CN(C2CCC(=O)NC2=O)C3=O)c1-c1ccc(C#N)cc1 (centres unmarked) [Example 57] | E (E = >25-75% remaining) | ≥ 25 | ≥ 25 | F (F = >75-100% remaining) |  |  |  |  |
| Cn1cnc(-c2ccc3c(c2)CN(C2CCC(=O)NC2=O)C3=O)c1-c1cc(F)ccc1Cl (centres unmarked) [Example 350] | D (D = >10- 25% remaining) | ≥ 25 | ≥ 25 | F (F = >75-100% remaining) |  |  |  |  |
| COc1ccc2cc(-c3c(-c4ccc5c(c4)CN(C4CCC(=O)NC4=O)C5=O)cnn3C)ccc2c1 (centres unmarked) [Example 149] | D (D = >10- 25% remaining) | < 25 | < 25 | F (F = >75-100% remaining) |  |  |  |  |
| Cn1cc(-c2ccc3c(c2)CN(C2CCC(=O)NC2=O)C3=O)c(-c2ccccc2)n1 (centres unmarked) [Example 3, 3-(5-(1-Methyl-3-phenyl-1H-pyrazol-4-yl)-1-oxoisoindolin-2-yl) piperidine-2,6-dione] | E (E = >25-75% remaining) | < 25 | ≥ 25 | F (F = >75-100% remaining) |  |  |  |  |
| CN1CCN(S(=O)(=O)c2ccc(-c3c(-c4ccc5c(c4)CN(C4CCC(=O)NC4=O)C5=O)ncn3C)cc2)CC1 (centres unmarked) [Example 449] |  |  |  |  | E (E = >25-75% remaining) | ≥ 25 | ≥ 25 | F (F = >75-100% remaining) |
| Cc1noc(-c2ccccc2)c1-c1ccc2c(c1)CN(C1CCC(=O)NC1=O)C2=O (centres unmarked) [Example 29, 3-(5-(3-Methyl-5-phenylisoxazol-4-yl)-1-oxoisoindolin-2-yl)piperidine-2,6-dione] | F (F = >75-100% remaining) | ≥ 25 | ≥ 25 | F (F = >75-100% remaining) |  |  |  |  |
| Cn1ncc(-c2ccc3c(c2)CN(C2CCC(=O)NC2=O)C3=O)c1-c1ccc(C2CCNCC2)cc1 (centres unmarked) [Example 413] |  |  |  |  | E (E = >25-75% remaining) | ≥ 25 | ≥ 25 | F (F = >75-100% remaining) |
| Cn1ncc(-c2ccc3c(c2)CN(C2CCC(=O)NC2=O)C3=O)c1-c1ccc(OCc2ccccc2)cc1 (centres unmarked) [Example 61] | E (E = >25-75% remaining) | < 25 | ≥ 25 | F (F = >75-100% remaining) |  |  |  |  |
| Cn1ncc(-c2ccc3c(c2)CN(C2CCC(=O)NC2=O)C3=O)c1-c1ccc(=O)n(C)c1 (centres unmarked) [Example 459] |  |  |  |  | E (E = >25-75% remaining) | < 25 | ≥ 25 | F (F = >75-100% remaining) |
| Cn1cnc(-c2ccc3c(c2)CN(C2CCC(=O)NC2=O)C3=O)c1-c1ccc(N2CCCCC2)nc1 (centres unmarked) [Example 403] |  |  |  |  | D (D = >10- 25% remaining) | < 25 | ≥ 25 | F (F = >75-100% remaining) |
| Cn1cnc(-c2ccc3c(c2)CN(C2CCC(=O)NC2=O)C3=O)c1-c1cccc(C#N)n1 (centres unmarked) [Example 399] |  |  |  |  | D (D = >10- 25% remaining) | < 25 | ≥ 25 | F (F = >75-100% remaining) |
| Cn1ncc(-c2ccc3c(c2)CN(C2CCC(=O)NC2=O)C3=O)c1-c1ccncc1 (centres unmarked) [Example 361] | E (E = >25-75% remaining) | < 25 | ≥ 25 | F (F = >75-100% remaining) |  |  |  |  |
